The results in this text go back to patent US11453683B1, “KRas G12D inhibitors” (Mirati Therapeutics, Inc., priority 2019, dated 2022).

The subject of the assay is KRas G12D-mediated phosphorylation of ERK. The experiment in a line: Inhibition of KRas G12D-mediated phosphorylation of ERK in AGS cells. The format is cell-based. To be noted: Homo sapiens; AGS cells expressing G12D, 3 hours, phospho-ERK normalized to GAPDH. The procedure, abridged: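 Fixed, methanol-permeabilized; phospho-ERK (Thr202/Tyr204) by in-cell immunofluorescence normalized to GAPDH. Percent of DMSO control, IC50 by 4-parameter fit.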

pIC50: −log10 of the molar value. Structures can show the parent of a compound that is named as a salt.

As usually defined, the pIC50 is −log10 of the IC50, conventionally taken in molar units. Low readings indicate a large IC50, high ones a small IC50. `Oc1cc(-c2ncc3c(N4CC5CCC(C4)N5)nc(OCC45CCCN4C[C@H](F)C5)nc3c2F)c2c(Cl)cccc2c1` (mixture of isomers) [Example 330, 4-(4-((1R,5S)-3,8-diazabicyclo[3.2.1]octan-3-yl)-8-fluoro-2-((2-fluorotetrahydro-1H-pyrrolizin-7a(5H)-yl)methoxy)pyrido[4,3-d]pyrimidin-7-yl)-5-chloronaphthalen-2-ol] gave a pIC50 of 7.93.
Then `Fc1c(-c2cccc3cccc(Br)c23)ncc2c(N3C[C@H]4CC[C@@H](C3)N4)nc(OCC34CCCN3CCC4)nc12` [Example 235, 4-((1R,5S)-3,8-diazabicyclo[3.2.1]octan-3-yl)-7-(8-bromonaphthalen-1-yl)-8-fluoro-2-((tetrahydro-1H-pyrrolizin-7a(5H)-yl)methoxy)pyrido[4,3-d]pyrimidine], with 6.47.
Then `OCCCOc1nc(N2C[C@H]3CC[C@@H](C2)N3)c2cnc(-c3cc(O)cc4ccccc34)c(F)c2n1` [Example 75, 4-(4-((1R,5S)-3,8-diazabicyclo[3.2.1]octan-3-yl)-8-fluoro-2-(3-hydroxypropoxy)pyrido[4,3-d]pyrimidin-7-yl)naphthalen-2-ol], with < 4.78.
For the molecule `CN1CCC[C@H]1COc1nc(N2C[C@H]3CC[C@@H](C2)N3)c2cnc(-c3cccc4cccc(Cl)c34)c(F)c2n1` [Example 132, 4-((1R,5S)-3,8-diazabicyclo[3.2.1]octan-3-yl)-7-(8-chloronaphthalen-1-yl)-8-fluoro-2-(((S)-1-methylpyrrolidin-2-yl)methoxy)pyrido[4,3-d]pyrimidine], the pIC50 was 5.59.
In the case of `CC1(C)CN2C[C@H](F)CC2(COc2nc(N3CC4CCC(C3)N4)c3cnc(-c4cccc5cccc(Cl)c45)c(F)c3n2)C1` (mixture of isomers) [Example 325, 4-((1R,5S)-3,8-diazabicyclo[3.2.1]octan-3-yl)-7-(8-chloronaphthalen-1-yl)-8-fluoro-2-((6-fluoro-2,2-dimethyltetrahydro-1H-pyrrolizin-7a(5H)-yl)methoxy)pyrido[4,3-d]pyrimidine], the pIC50 was < 4.78.
`CNC(=O)OC[C@H]1CC[C@@]2(COc3nc(N4CC5CCC(C4)N5)c4cnc(-c5cccc6cccc(Cl)c56)c(F)c4n3)CCCN12` [Example 408, (7a-(((4-(3,8-diazabicyclo[3.2.1]octan-3-yl)-7-(8-chloronaphthalen-1-yl)-8-fluoropyrido[4,3-d]pyrimidin-2-yl)oxy)methyl)hexahydro-1H-pyrrolizin-3-yl)methyl methylcarbamate]: the pIC50 is 6.62.
In the case of `Cc1cccc(-c2ncc3c(N4C[C@H]5CC[C@@H](C4)N5)nc(OCC45CCCN4CCC5)nc3c2F)c1Cl` [Example 276, 4-((1R,5S)-3,8-diazabicyclo[3.2.1]octan-3-yl)-7-(2-chloro-3-methylphenyl)-8-fluoro-2-((hexahydro-1H-pyrrolizin-7a-yl)methoxy)pyrido[4,3-d]pyrimidine] it was 5.42; in that of `Fc1cccc(-c2ncc3c(N4C[C@H]5CC[C@@H](C4)N5)nc(OCC45CCCN4CCC5)nc3c2F)c1OC(F)F` [Example 302, 4-((1R,5S)-3,8-diazabicyclo[3.2.1]octan-3-yl)-7-(2-(difluoromethoxy)-3-fluorophenyl)-8-fluoro-2-((hexahydro-1H-pyrrolizin-7a-yl)methoxy)pyrido[4,3-d]pyrimidine], 5.70.
In turn, `CN(C)CCOc1nc(N2C[C@H]3CC[C@@H](C2)N3)c2cnc(-c3cc(O)cc4ccccc34)c(F)c2n1` [Example 18, 4-(4-((1R,5S)-3,8-diazabicyclo[3.2.1]octan-3-yl)-2-(2-(dimethylamino)ethoxy)-8-fluoropyrido[4,3-d]pyrimidin-7-yl)naphthalen-2-ol] had a pIC50 of 5.43.
`Oc1cc(-c2ncc3c(N4C[C@H]5CC[C@@H](C4)N5)nc(OC[C@@H]4CC5CCN4C5)nc3c2F)c2ccccc2c1` [Example 40, 4-(2-(((2S)-1-azabicyclo[2.2.1]heptan-2-yl)methoxy)-4-((1R,5S)-3,8-diazabicyclo[3.2.1]octan-3-yl)-8-fluoropyrido[4,3-d]pyrimidin-7-yl)naphthalen-2-ol] had a pIC50 of 5.37.
Then `Cn1cncc1CCOc1nc(N2C[C@H]3CC[C@@H](C2)N3)c2cnc(-c3cc(O)cc4ccccc34)c(F)c2n1` [Example 110, 4-(4-((1R,5S)-3,8-diazabicyclo[3.2.1]octan-3-yl)-8-fluoro-2-(2-(1-methyl-1H-imidazol-5-yl)ethoxy)pyrido[4,3-d]pyrimidin-7-yl)naphthalen-2-ol], with < 4.78.
Take `Oc1cc(-c2ncc3c(N4C[C@H]5CC[C@@H](C4)N5)nc(N4CCCC4)nc3c2F)c2ccccc2c1` [Example 118, 4-(4-((1R,5S)-3,8-diazabicyclo[3.2.1]octan-3-yl)-8-fluoro-2-(pyrrolidin-1-yl)pyrido[4,3-d]pyrimidin-7-yl)naphthalen-2-ol 2,2,2-trifluoroacetate]: the pIC50 is < 4.78.
`CN1CCC[C@H]1COc1nc(N2C[C@H]3CC[C@@H](C2)N3)c2cnc(-c3cc(O)cc4ccccc34)cc2n1` [Example 1, 4-(4-((1R,5S)-3,8-diazabicyclo[3.2.1]octan-3-yl)-2-(((S)-1-methylpyrrolidin-2-yl)methoxy)pyrido[4,3-d]pyrimidin-7-yl)naphthalen-2-ol tris-hydrochloride salt] showed a pIC50 of 5.50.
In the case of `COCCCOc1nc(N2C[C@H]3CC[C@@H](C2)N3)c2cnc(-c3cc(O)cc4ccccc34)c(F)c2n1` [Example 68, 4-(4-((1R,5S)-3,8-diazabicyclo[3.2.1]octan-3-yl)-8-fluoro-2-(3-methoxypropoxy)pyrido[4,3-d]pyrimidin-7-yl)naphthalen-2-ol] it was 5.12; in that of `CCn1ccc2cccc(-c3ncc4c(N5C[C@H]6CC[C@@H](C5)N6)nc(OCC56CCCN5CCC6)nc4c3F)c21` [Example 427, 4-((1R,5S)-3,8-diazabicyclo[3.2.1]octan-3-yl)-7-(1-ethyl-1H-indol-7-yl)-8-fluoro-2-((hexahydro-1H-pyrrolizin-7a-yl)methoxy)pyrido[4,3-d]pyrimidine], 5.70.
In the case of `CN1CCC[C@H]1CCOc1nc(N2C[C@H]3CC[C@@H](C2)N3)c2cnc(-c3cc(O)cc4ccccc34)c(F)c2n1` [Example 10, 4-(4-((1R,5S)-3,8-diazabicyclo[3.2.1]octan-3-yl)-8-fluoro-2-(2-((S)-1-methylpyrrolidin-2-yl)ethoxy)pyrido[4,3-d]pyrimidin-7-yl)naphthalen-2-ol] it was 5.09; in that of `Fc1c(-c2cccc3cccc(Cl)c23)ncc2c(N3C[C@H]4CC[C@@H](C3)N4)nc(OCC34CC(F)CN3CC(F)C4)nc12` (stereo partly drawn) [Example 425, 4-((1R,5S)-3,8-diazabicyclo[3.2.1]octan-3-yl)-7-(8-chloronaphthalen-1-yl)-2-((2,6-difluorohexahydro-1H-pyrrolizin-7a-yl)methoxy)-8-fluoropyrido[4,3-d]pyrimidine], 5.27.
On to `CN(C)C1CN(c2nc(N3C[C@H]4CC[C@@H](C3)N4)c3cnc(-c4cc(O)cc5ccccc45)c(F)c3n2)C1` [Example 120, 4-(4-((1R,5S)-3,8-diazabicyclo[3.2.1]octan-3-yl)-2-(3-(dimethylamino)azetidin-1-yl)-8-fluoropyrido[4,3-d]pyrimidin-7-yl)naphthalen-2-ol bis(2,2,2-trifluoroacetate)], for which the pIC50 was 5.68.
As for `Oc1cc(-c2ncc3c(N4C[C@H]5CC[C@@H](C4)N5)nc(OCC4CCCC4)nc3c2F)c2ccccc2c1` [Example 73, 4-(4-((1R,5S)-3,8-diazabicyclo[3.2.1]octan-3-yl)-2-(cyclopentylmethoxy)-8-fluoropyrido[4,3-d]pyrimidin-7-yl)naphthalen-2-ol], the pIC50 was < 5.26.
On to `Fc1c(-c2cccc3cccc(C(F)(F)F)c23)ncc2c(N3C[C@H]4CC[C@@H](C3)N4)nc(OC[C@@]34CCCN3C[C@H](F)C4)nc12` [Example 419, 4-((1R,5S)-3,8-diazabicyclo[3.2.1]octan-3-yl)-8-fluoro-2-(((2R,7aS)-2-fluorotetrahydro-1H-pyrrolizin-7a(5H)-yl)methoxy)-7-(8-(trifluoromethyl)naphthalen-1-yl)pyrido[4,3-d]pyrimidine], for which the pIC50 is 5.56.
Turning to `O=S1(=O)CCC(Oc2nc(N3C[C@H]4CC[C@@H](C3)N4)c3cnc(-c4cc(O)cc5ccccc45)c(F)c3n2)CC1` [Example 71, 4-((4-((1R,5S)-3,8-diazabicyclo[3.2.1]octan-3-yl)-8-fluoro-7-(3-hydroxynaphthalen-1-yl)pyrido[4,3-d]pyrimidin-2-yl)oxy)tetrahydro-2H-thiopyran 1,1-dioxide], the pIC50 is < 4.78.
For `CO[C@H]1CN2CCC[C@]2(COc2nc(N3CC4CCC(C3)N4)c3cnc(-c4cccc5cccc(Cl)c45)c(F)c3n2)C1` [Example 225, 4-((1R,5S)-3,8-diazabicyclo[3.2.1]octan-3-yl)-7-(8-chloronaphthalen-1-yl)-8-fluoro-2-((2-methoxytetrahydro-1H-pyrrolizin-7a(5H)-yl)methoxy)pyrido[4,3-d]pyrimidine bis-2,2,2-trifluoroacetate], the pIC50 is 5.51.
In the case of `Fc1c(-c2c(C(F)(F)F)ccc3[nH]ncc23)ncc2c(N3C[C@H]4CC[C@@H](C3)N4)nc(OCC34CCCN3CCC4)nc12` [Example 344, 4-((1R,5S)-3,8-diazabicyclo[3.2.1]octan-3-yl)-8-fluoro-2-((tetrahydro-1H-pyrrolizin-7a(5H)-yl)methoxy)-7-(5-(trifluoromethyl)-1H-indazol-4-yl)pyrido[4,3-d]pyrimidine] it was 5.09.
On to `CCc1c(Cl)cccc1-c1ncc2c(N3C[C@H]4CC[C@@H](C3)N4)nc(OCC34CCCN3CCC4)nc2c1F` [Example 312, 4-((1R,5S)-3,8-diazabicyclo[3.2.1]octan-3-yl)-7-(3-chloro-2-ethylphenyl)-8-fluoro-2-((hexahydro-1H-pyrrolizin-7a-yl)methoxy)pyrido[4,3-d]pyrimidine], for which the pIC50 was 5.73.
